Biological target: T1, SIRT1 (Homo sapiens, UniProt Q96EB6)
T1 sequence (Q96EB6 1-747): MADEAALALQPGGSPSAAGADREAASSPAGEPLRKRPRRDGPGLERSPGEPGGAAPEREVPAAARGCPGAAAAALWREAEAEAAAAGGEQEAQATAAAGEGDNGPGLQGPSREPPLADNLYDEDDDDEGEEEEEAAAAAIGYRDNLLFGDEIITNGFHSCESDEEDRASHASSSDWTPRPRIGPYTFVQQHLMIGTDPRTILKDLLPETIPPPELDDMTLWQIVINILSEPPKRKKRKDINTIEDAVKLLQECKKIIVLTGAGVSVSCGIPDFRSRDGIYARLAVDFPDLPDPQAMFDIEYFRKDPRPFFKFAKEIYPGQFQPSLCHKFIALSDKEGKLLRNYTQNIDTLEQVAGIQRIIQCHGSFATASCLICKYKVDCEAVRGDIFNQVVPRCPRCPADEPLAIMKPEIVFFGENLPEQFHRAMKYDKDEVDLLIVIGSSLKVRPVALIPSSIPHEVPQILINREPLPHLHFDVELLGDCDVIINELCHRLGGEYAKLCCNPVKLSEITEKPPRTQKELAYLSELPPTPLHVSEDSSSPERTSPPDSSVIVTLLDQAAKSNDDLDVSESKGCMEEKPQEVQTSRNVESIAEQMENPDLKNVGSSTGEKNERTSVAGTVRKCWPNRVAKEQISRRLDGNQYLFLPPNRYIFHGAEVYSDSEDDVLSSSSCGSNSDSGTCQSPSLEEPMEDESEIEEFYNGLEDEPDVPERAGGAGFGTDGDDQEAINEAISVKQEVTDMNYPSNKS
Assay: Trp mass spectrometry assay of SIRT1 activity (EC1.5, percent maximum activation)
Assay type: biochemical
Details: Trp mass spectrometry assay; for TRP Activity (EC1.5): EC1.5 = concentration giving 150% activation of SIRT1
In short: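 Steps: recombinant SIRT1 (N-His, bacterial) and NAD with p53-derived, norleucine-substituted 5TMR peptide; add compound at several concentrations; incubate 25 min; stop with 10% formic acid; freeze; quantify OAADPR by mass spec against control lacking compound.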

[1] = percent maximum activation of SIRT1
[2] = 0.5 μM peptide substrate, 120 μM βNAD+, 10 nM SIRT1, 25 minutes at 25° C.

SMILES | TRP Activity (EC1.5) | TRP MAX RESP (percent maximum fold activation) [1] | TRP Activity (EC1.5, concentration of test compound that results in 150% activation of SIRT1) [2] | TRP MAX RESP (percent maximum fold activation) [2]
O=C(Nc1ccnc(O[C@H]2CCOC2)n1)N1c2nc(-c3cccc(C(F)(F)F)c3)c(Cl)cc2N2CC[C@H]1C2 [Example 19, (4S)-8-chloro-N-(2-(((S)-tetrahydrofuran-3-yl)oxy)pyrimidin-4-yl)-7-(3-(trifluoromethyl)phenyl)-3,4-dihydro-1,4-methanopyrido[2,3-b][1,4]diazepine-5(2H)-carboxamide] | A (EC1.5<1 μM) | A (Fold activation ≧150%) | – | –
O=C(NC1CC1)N1c2nc(-c3cccc(C(F)(F)F)c3)c(Cl)cc2N2CC[C@H]1C2 [Example 52, (4S)-8-chloro-N-cyclopropyl-7-(3-(trifluoromethyl)phenyl)-3,4-dihydro-1,4-methanopyrido[2,3-b][1,4]diazepine-5(2H)-carboxamide] | A (EC1.5<1 μM) | A (Fold activation ≧150%) | – | –
O=C(Nc1cnc(OC[C@H](O)CO)nc1)N1c2nc(-c3cccc(C(F)(F)F)c3)c(Cl)cc2N2CC[C@H]1C2 [Example 66, (4S)-8-chloro-N-(2-((R)-2,3-dihydroxypropoxy)pyrimidin-5-yl)-7-(3-(trifluoromethyl)phenyl)-3,4-dihydro-1,4-methanopyrido[2,3-b][1,4]diazepine-5(2H)-carboxamide] | B (EC1.5 1-25 μM) | A (Fold activation ≧150%) | – | –
O=C(Nc1cncc(OC[C@H](O)CO)n1)N1c2nc(-c3cccc(C(F)(F)F)c3)ccc2N2CC[C@H]1C2 [Example 128, (4S)-N-(6-((R)-2,3-dihydroxypropoxy)pyrazin-2-yl)-7-(3-(trifluoromethyl)phenyl)-3,4-dihydro-1,4-methanopyrido[2,3-b][1,4]diazepine-5(2H)-carboxamide] | A (EC1.5<1 μM) | A (Fold activation ≧150%) | – | –
O=C(Nc1cnc(OC[C@H](O)CO)cn1)N1c2nc(-c3cccc(C(F)(F)F)c3)c(Cl)cc2N2CC[C@H]1C2 [Example 34, (4S)-8-chloro-N-(5-((R)-2,3-dihydroxypropoxy)pyrazin-2-yl)-7-(3-(trifluoromethyl)phenyl)-3,4-dihydro-1,4-methanopyrido[2,3-b][1,4]diazepine-5(2H)-carboxamide] | B (EC1.5 1-25 μM) | A (Fold activation ≧150%) | – | –
O=C(Nc1ccccn1)N1c2nc(-c3cccc(C(F)(F)F)c3)c(Cl)cc2N2CC[C@H]1C2 [Example 35, (4S)-8-chloro-N-(pyridin-2-yl)-7-(3-(trifluoromethyl)phenyl)-3,4-dihydro-1,4-methanopyrido[2,3-b][1,4]diazepine-5(2H)-carboxamide] | A (EC1.5<1 μM) | A (Fold activation ≧150%) | – | –
Cc1cc(-c2ccc3c(n2)N(C(=O)Nc2cccc4nccnc24)[C@H]2CCN3C2)ccn1 [Example 131, (4S)-7-(2-methylpyridin-4-yl)-N-(quinoxalin-5-yl)-3,4-dihydro-1,4-methanopyrido[2,3-b][1,4]diazepine-5(2H)-carboxamide] | B (EC1.5 1-25 μM) | A (Fold activation ≧150%) | – | –
Cc1ccc(-c2nc3c(cc2Cl)N2CC[C@@H](C2)N3C(=O)Nc2ccccn2)cn1 [Example 16, (4S)-8-chloro-7-(6-methylpyridin-3-yl)-N-(pyridin-2-yl)-3,4-dihydro-1,4-methanopyrido[2,3-b][1,4]diazepine-5(2H)-carboxamide] | B (EC1.5 1-25 μM) | A (Fold activation ≧150%) | – | –
Cc1cc(-c2ccc3c(n2)N(C(=O)Nc2cccnn2)[C@H]2CCN3C2)ccn1 [Example 158, (4S)-7-(2-methylpyridin-4-yl)-N-(pyridazin-3-yl)-3,4-dihydro-1,4-methanopyrido[2,3-b][1,4]diazepine-5(2H)-carboxamide] | B (EC1.5 1-25 μM) | A (Fold activation ≧150%) | – | –
Cc1cc(-c2ccc3c(n2)N(C(=O)N2CCN(C)CC2)[C@H]2CCN3C2)ccn1 [Example 174, (4-methylpiperazin-1-yl)((4S)-7-(2-methylpyridin-4-yl)-3,4-dihydro-1,4-methanopyrido[2,3-b][1,4]diazepin-5(2H)-yl)methanone] | C (EC1.5>25 μM) | B (Fold Activation <150%) | – | –
Cc1cc(-c2nc3c(cc2Cl)N2CC[C@@H](C2)N3C(=O)Nc2cccc(OC[C@@H](O)CO)n2)ccn1 [Example 93, (4S)-8-chloro-N-(6-((S)-2,3-dihydroxypropoxy)pyridin-2-yl)-7-(2-methylpyridin-4-yl)-3,4-dihydro-1,4-methanopyrido[2,3-b][1,4]diazepine-5(2H)-carboxamide] | B (EC1.5 1-25 μM) | A (Fold activation ≧150%) | – | –
O=C(Nc1ccnc(OC[C@@H](O)CO)n1)N1c2nc(-c3cccc(C(F)(F)F)c3)c(Cl)cc2N2CC[C@H]1C2 [Example 30, (4S)-8-chloro-N-(2-((S)-2,3-dihydroxypropoxy)pyrimidin-4-yl)-7-(3-(trifluoromethyl)phenyl)-3,4-dihydro-1,4-methanopyrido[2,3-b][1,4]diazepine-5(2H)-carboxamide] | A (EC1.5<1 μM) | A (Fold activation ≧150%) | – | –
Cn1ccc(-c2ccc3c(n2)N(C(=O)Nc2cccnc2)[C@H]2CCN3C2)cc1=O [Example 233, (4S)-7-(1-methyl-2-oxo-1,2-dihydropyridin-4-yl)-N-(pyridin-3-yl)-3,4-dihydro-1,4-methanopyrido[2,3-b][1,4]diazepine-5(2H)-carboxamide] | – | – | B (EC1.5 1-25 μM) | A (Fold activation ≧150%)
Cc1ccc(-c2ccc3c(n2)N(C(=O)Nc2cccnc2)[C@H]2CCN3C2)c(C)n1 [Example 201, (4S)-7-(2,6-dimethylpyridin-3-yl)-N-(pyridin-3-yl)-3,4-dihydro-1,4-methanopyrido[2,3-b][1,4]diazepine-5(2H)-carboxamide] | – | – | B (EC1.5 1-25 μM) | A (Fold activation ≧150%)
Cc1cncc(-c2ccc3c(n2)N(C(=O)Nc2cnccn2)[C@H]2CCN3C2)c1 [Example 154, (4S)-7-(5-methylpyridin-3-yl)-N-(pyrazin-2-yl)-3,4-dihydro-1,4-methanopyrido[2,3-b][1,4]diazepine-5(2H)-carboxamide] | B (EC1.5 1-25 μM) | A (Fold activation ≧150%) | – | –
Cc1ccc(-c2nc3c(cc2Br)N2CC[C@@H](C2)N3C(=O)Nc2cccnc2)cn1 [Example 6, (4S)-8-bromo-7-(6-methylpyridin-3-yl)-N-(pyridin-3-yl)-3,4-dihydro-1,4-methanopyrido[2,3-b][1,4]diazepine-5(2H)-carboxamide] | B (EC1.5 1-25 μM) | A (Fold activation ≧150%) | – | –
Cc1ccc(-c2ccc3c(n2)N(C(=O)Nc2ccnc(O[C@H]4CCOC4)n2)[C@H]2CCN3C2)cn1 [Example 227, (4S)-7-(6-methylpyridin-3-yl)-N-(2-(((S)-tetrahydrofuran-3-yl)oxy)pyrimidin-4-yl)-3,4-dihydro-1,4-methanopyrido[2,3-b][1,4]diazepine-5(2H)-carboxamide] | – | – | B (EC1.5 1-25 μM) | A (Fold activation ≧150%)
Cc1cc(-c2ccc3c(n2)N(C(=O)Nc2cc(CCC(O)CO)ccn2)[C@H]2CCN3C2)ccn1 (single isomer, unassigned) [Example 359] | – | – | B (EC1.5 1-25 μM) | A (Fold activation ≧150%)
CC(C)(O)CCOc1cccc(NC(=O)N2c3nc(-c4cccc(C(F)(F)F)c4)c(Cl)cc3N3CC[C@H]2C3)n1 [Example 59, (4S)-8-chloro-N-(6-(3-hydroxy-3-methylbutoxy)pyridin-2-yl)-7-(3-(trifluoromethyl)phenyl)-3,4-dihydro-1,4-methanopyrido[2,3-b][1,4]diazepine-5(2H)-carboxamide] | B (EC1.5 1-25 μM) | A (Fold activation ≧150%) | – | –
Cl.O=C(Nc1ccnc(OC[C@H](O)CO)c1)N1c2nc(-c3cccc(C(F)(F)F)c3)c(Cl)cc2N2CC[C@H]1C2 [Example 60, (4S)-8-chloro-N-(2-((R)-2,3-dihydroxypropoxy)pyridin-4-yl)-7-(3-(trifluoromethyl)phenyl)-3,4-dihydro-1,4-methanopyrido[2,3-b][1,4]diazepine-5(2H)-carboxamide, Hydrochloride] | A (EC1.5<1 μM) | A (Fold activation ≧150%) | – | –
